The conditions of data set [1]: meta-analysis, off-label use; cited from earlier work.
The subject of a further data set is SCD1 mRNA. Particulars: cited from earlier work.
A short description of data set [2]: Non-GLP pharmacokinetic (PK) and toxicokinetic (TK) studies. The format is in vivo, mice, rats and dogs.
Data set [3] in a line: 14-day repeat oral dosing toxicity/toxicokinetics in dogs. It is filed as in vivo. How it is done:
Healthy beagles (Canis lupis familiaris) were dosed daily (oral gavage) for 14 days, and blood was collected on day 15.
A dosing regimen has been determined for Compound 1. Single dose and 7-day dosing non-GLP toxicity has been performed in rats and dogs and GLP toxicity in dogs 14 days repeat dosing. […] Dose conversion has been done via allometry based on body surface area.
These issues were attributed to atrophy of the Meibomian gland (the specialized sebaceous gland of the eyelid—see, e.g., FIG. 6). […] Mitigation the sequelae of events that occur due to dry eye is achieved by prophylactic administration of lipid eye drops and clinical eye exam every 14 days during a clinical trial.

A short description of data set [4]: Oral PK in dogs (Table 1). It is filed as in vivo. Particulars: dog, plasma, canine, 20 mg/kg oral gavage.
A further data set concerns known kinases. Description: Off-target reactivity with kinases. The format is biochemical.
For a further data set, the target named is T1, SCD1 (Homo sapiens, UniProt O00767).
T1 construct: conversion of ^13C18-stearoyl CoA to ^13C18-oleoyl using LC-MS/MS in liver microsomes; from tissue; host or cells: liver microsomes
T1 sequence (O00767 1-359): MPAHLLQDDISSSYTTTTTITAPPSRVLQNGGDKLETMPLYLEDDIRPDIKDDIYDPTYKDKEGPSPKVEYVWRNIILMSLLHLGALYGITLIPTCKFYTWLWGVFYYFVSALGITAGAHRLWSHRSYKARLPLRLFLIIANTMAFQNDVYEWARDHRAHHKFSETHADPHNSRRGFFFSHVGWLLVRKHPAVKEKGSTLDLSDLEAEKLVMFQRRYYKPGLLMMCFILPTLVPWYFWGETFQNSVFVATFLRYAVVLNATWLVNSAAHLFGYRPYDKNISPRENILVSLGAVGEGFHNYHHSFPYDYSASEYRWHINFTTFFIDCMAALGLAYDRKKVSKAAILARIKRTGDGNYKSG
Nature of the data set: SCD1 enzyme inhibition (conversion of 13C18-stearoyl CoA to 13C18-oleoyl, LC-MS/MS, liver microsomes). It is filed as biochemical. In general terms: Microsomes from liver hold many membrane-bound enzymes, among them those of drug oxidation.

Data set [5] in a line: Oral PK in mice (Table 1). The format is in vivo. Conditions: mouse, plasma, C57BL/6 mice, 10 mg/kg oral gavage. How it is done:
Serum chemistry and histochemical analysis is done for both the Western Diet and MCD mouse models. Body weight and Echo-MRI is used to determine lean muscle, fat, and water content of the mice. At the end of the study, the animals are fasted overnight, and blood samples are collected for serum chemistry. A full panel of liver and metabolite biomarkers are assessed. This standard panel includes triglycerides and total cholesterol, triglycerides (TG), ALP, ALT, AST, Creatinine kinase, amylase, lipase, total bilirubin, LDH, as well as calcium, bicarbonate, potassium and sodium. Liver function tests from this panel include Aspartate aminotransferase level (AST), Alanine aminotransferase level […], GGT, Apolipoprotein, Glucose levels, and Alkaline Phosphatase (ALP), Proc-3, GAL-3, YKL-40, CK-18 and Caspase cleaved (MN-65, MN-30). Additionally, insulin, leptin and adiponectin levels are assessed as part of validation of models.
Compound 1 quantification from mouse plasma is performed using LC-MS/MS on ExionLC system equipped with Kinetex XB-C18, 2.1×50 mm (Phenomenex 00B-4496-AN) column coupled with AB Sciex 5500 QTrap instrument (equipped with TurboIonspray ionization source and Analyst software), with Acetonitrile/water/0.1% v/v formic acid as mobile phase. Blood samples collected are centrifuged at 1300 g, 2-8° C., ≥10 minutes and the collected plasma are stored either on ice (less than 1 hour) or at −80° C. until further processing. Predetermined quantities of plasma are vortexed with ice-cold acetonitrile to precipitate the protein content and centrifuged at 1300 g, 2-8° C., ≥10 minutes. Supernatant is taken in a labelled vial and evaporated at 40° C. under a gentle stream of nitrogen. The precipitates are reconstituted in LC-MS grade methanol and centrifuged at 1300 g, 2-8° C., ≥10 minutes. The supernatant is sampled for LC-MS/MS analysis. The concentration of Compound 1 is estimated by standard curve developed from plasma standards spiked with deuterium labeled Compound 1 as internal standard. Deuterium labeled Compound 1 is on-hand. In some embodiments, deuterium labeled Compound 1 has the following structure: […]

Data set [6] deals with C57BL6/J male mice fed on a Western Diet. Nature of the data set: Western Diet-induced liver steatosis in mice, Compound 1 at 2 mg/kg IP for 10 days. The format is in vivo. As for the experimental part: The study was performed with C57BL6/J male mice, placed on a Western Diet for 4 months, and treated for 10 days IP with Compound 1 (2 mg/kg−N=3; *P<0.05)
Data set [7] in a line: Oral PK in rats (Table 1). The format is in vivo. Particulars: plasma, Sprague Dawley rat, 12.5 mg/kg oral gavage.
A short description of data set [8]: Oral tolerability in male and female rats. The format is in vivo.
The mark [9] stands for this setting: 4 hour, read-out: Drug in Plasma, 4 hour.
Setting [10] is: 8 hour, read-out: Drug in Plasma, 8 hour.
[11] abbreviates: 24 hour, read-out: Drug in Plasma, 24 hour.
Setting [12] is: Compound 1 alone, Western Diet mice.

Entries after “also recorded” stand apart in the source; their conditions may differ.

The MTD is the largest dose that counted as tolerated. As usually defined, the AUC(0-t) is the area under the concentration-time curve up to a stated or last time point. Broadly, the Cmax is the peak of the concentration-time curve. Usually Tmax stands for the time from dosing to the highest level. The term IC50 denotes the concentration needed to halve the response being measured.

With `CCc1ccc(CCOc2ccc(CC3SC(=O)NC3=O)cc2)nc1` (stereo not drawn) [pioglitazone], the “efficacy in human NAFLD” value in data set [1] is “efficacious in human NAFLD”.
For the compound `CCCCCCCCCCCCCCCCCCCC(=O)N[C@H]1CC[C@@]2(C)[C@@H](C1)C[C@@H](O)[C@@H]1[C@@H]2C[C@H](O)[C@]2(C)[C@@H]([C@H](C)CCC(=O)O)CC[C@@H]12` [Aramchol], in the data set with SCD1 mRNA, the “SCD1 mRNA expression levels” value is “reduces expression of the mRNA for SCD1; also recorded: downregulates SCD1; also recorded: reduces SCD1 mRNA expression levels”.
In the case of `CNC(=O)c1ccnc(NC(=O)N2CCC(Oc3ccccc3Cl)CC2)c1` [Compound 1], the oral bioavailability result in data set [2] (in vivo, po) is listed as “good oral bioavailability; also recorded: favorable oral bioavailability; also recorded: orally bioavailable”. Further, the tolerability entry in [2] (mice, rats and dogs) is on record as “well-tolerated”; in data set [8] (oral dose range 50-300 mg/kg), “well tolerated”. Further, the “chemistry, urinalysis, electrocardiograph and hematological parameters vs vehicle control” value in data set [3] (14-day GLP dog study) was “no substantial differences”. The “reversibility of eye damage” value in [3] (14-day recover dogs (2M/2F)) was “Most of the damage to eyes was reversible”. Besides, the WBC entry in data set [3] (beagles, daily oral gavage 14 days) is recorded as “no dramatic changes”. Further, the “liver enzymes or cholesterol levels” value in data set [3] (beagles, daily oral gavage 14 days, blood on day 15) is “no significant changes”. The MTD at 14 days in data set [3] (both sexes, beagle, dog, in vivo, dogs, oral, read-out: maximum tolerated dose (MTD)) stood at 20 mg/kg. Besides, the “therapeutic window for the treatment of NASH” value in data set [3] (dog, in vivo) is reported as “wide therapeutic window”. Further, the ophthalmic observations entry in data set [3] (dogs at the maximum tolerated doses) is “inflammation of the ocular surface with occasional corneal ulceration and low intraocular pressure”. In addition, in [3] (dogs, 14-day repeat dosing, high doses), the dose limiting toxicity entry is “ocular inflammation”. Further, the AUC(0-t) in data set [4] was 90500 ng·h/mL; in data set [5] it was 20900 ng·h/mL; in data set [7], 96400 ng·h/mL. Further, the Cmax in data set [4] turned out to be 12500 ng/mL; in data set [5], 4320 ng/mL; in [7], 11600 ng/mL. In addition, the Tmax came to 60 min in data set [4] and 30 min in data set [7]. Further, the figures for the concentration at 4 h in data set [4] (setting [9]), in [5] (setting [9]) and in data set [7] (setting [9]) were 8310 ng/mL, approximately 3000 ng/mL and 8920 ng/mL, respectively. In addition, the concentration at 8 h was 3200 ng/mL in [4] (setting [10]), approximately 900 ng/mL in data set [5] (setting [10]) and 4130 ng/mL in [7] (setting [10]). The concentration at 24 h in [4] (setting [11]) is 212 ng/mL; in data set [5] (setting [11]) it was approximately 25 ng/mL; in [7] (setting [11]) it was 437 ng/mL. Besides, the “off-target reactivity with kinases” value with known kinases is listed as “does not significantly react off-target with any known kinases”. The “mode of SCD1 inhibition” value on SCD1 is “inhibits enzymatic activity competitively; also recorded: competitive inhibition; also recorded: reversible”. For the same compound, on SCD1 (13C18-stearoyl CoA to 13C18-oleoyl, LC-MS/MS, liver microsomes, read-out: IC50 for blocking SCD1 enzymatic activity), the IC50 amounted to 1.9 nM. Besides, the plasma glucose entry in data set [6] (setting [12]) is “does not reduce”. Besides, in data set [6] (setting [12]), the plasma triglycerides entry is “does not reduce”. Moreover, in data set [6] (Western Diet 4 months, 2 mg/kg IP 10 days, H&E quantification, N=3, 2 mg/kg), the liver steatosis entry is given as “reversal of liver steatosis; also recorded: significant reduction in liver steatohepatitis; also recorded: significantly reduced liver steatosis; also recorded: reduces liver steatosis”. Besides, the “liver function plasma markers / serum chemistry (ALP and BUN levels)” value in [6] (Western Diet 4 months, 2 mg/kg IP 10 days, N=3, 2 mg/kg) is “Significant attenuation of liver damage; also recorded: improved liver function plasma markers; also recorded: significantly improves liver function tests”. Moreover, in [6] (preliminary data), the “efficacious dose for NASH” value amounted to 2 mg/kg. In [8] (oral 50-300 mg/kg), the “induction of liver enzymes” value is on record as “does not induce liver enzymes”.
